From PubChem BioAssay AID330 (DTP/NCI, 2004)
Several values for one entry are separate records, joined by “and”; a condition that tells them apart may be missing. Identical values can stand only once. Toxic doses and inconclusive results are not listed.

Tested on: P388 leukemia ip, CD2F1 mice, survival T/C
Experiment: NCI In Vivo Anticancer Drug Screen. Data for tumor model P388 Leukemia (intraperitoneal) in CD2F1 (CDF1) mice
Settings: endpoint: median survival time, higher = longer survival
In short: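 Mice carrying the transplanted tumor received test compound or vehicle. Survival was recorded in each group, and the value is the treated-group measurement divided by that of the vehicle-treated control group.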

[1] = dose: 50.0 mg/kg/injection, schedule: Q01DX009 (ip), vehicle: saline with Tween-80
[2] = dose: 60.0 mg/kg/injection, schedule: Q01DX005 (ip), vehicle: saline with Tween-80
[3] = dose: 120.0 mg/kg/injection, schedule: Q01DX005 (ip), vehicle: saline with Tween-80
[4] = dose: 240.0 mg/kg/injection, schedule: Q01DX005 (ip), vehicle: saline with Tween-80
[5] = dose: 50.0 mg/kg/injection, schedule: Q01DX005 (ip), vehicle: saline with Tween-80
[6] = dose: 100.0 mg/kg/injection, schedule: Q01DX005 (ip), vehicle: saline with Tween-80
[7] = dose: 200.0 mg/kg/injection, schedule: Q01DX005 (ip), vehicle: saline with Tween-80
[8] = dose: 50.0 mg/kg/injection, schedule: Q01DX009 (ip), vehicle: Klucel (hydroxypropylcellulose) (HPC)
[9] = dose: 100.0 mg/kg/injection, schedule: Q01DX009 (ip), vehicle: Klucel (hydroxypropylcellulose) (HPC)
[10] = dose: 200.0 mg/kg/injection, schedule: Q01DX009 (ip), vehicle: Klucel (hydroxypropylcellulose) (HPC)
[11] = dose: 25.0 mg/kg/injection, schedule: Q01DX005 (ip), vehicle: Klucel (hydroxypropylcellulose) (HPC)
[12] = dose: 50.0 mg/kg/injection, schedule: Q01DX005 (ip), vehicle: Klucel (hydroxypropylcellulose) (HPC)
[13] = dose: 100.0 mg/kg/injection, schedule: Q01DX005 (ip), vehicle: Klucel (hydroxypropylcellulose) (HPC)

COc1ccc(-c2cc(=O)c3c(O)cc(O)cc3o2)cc1
T/C [1]: 90 % of control | T/C (dose: 100.0 mg/kg/injection, schedule: Q01DX009 (ip), vehicle: saline with Tween-80): 90 % of control | T/C (dose: 100.0 mg/kg/injection, schedule: Q04DX003 (ip), vehicle: saline with Tween-80): 90 % of control | T/C (dose: 200.0 mg/kg/injection, schedule: Q01DX009 (ip), vehicle: saline with Tween-80): 110 % of control | T/C (dose: 200.0 mg/kg/injection, schedule: Q04DX003 (ip), vehicle: saline with Tween-80): 90 % of control

O=C(Nc1ccc(F)cc1)N1CCCCC1
T/C [2]: 91 % of control | T/C [3]: 99 % of control | T/C [4]: 97 % of control

CC(C)C1OCC(CCl)O1 (centres undefined)
T/C [5]: 104 % of control | T/C [6]: 100 % of control | T/C [7]: 104 % of control

O=C1CC(=O)C(Br)=C1Br
T/C (dose: 0.37 mg/kg/injection, schedule: Q01DX009 (ip), vehicle: saline): 109 % of control | T/C (dose: 0.75 mg/kg/injection, schedule: Q01DX009 (ip), vehicle: saline): 100 % of control | T/C (dose: 0.75 mg/kg/injection, schedule: Q04DX003 (ip), vehicle: saline with Tween-80): 95 % of control | T/C (dose: 1.5 mg/kg/injection, schedule: Q01DX009 (ip), vehicle: saline): 100 % of control

CN(C)N1C(=O)C(c2ccccc2)(c2ccccc2)CSC1=S
T/C [8]: 108 % of control | T/C [9]: 100 % of control | T/C [10]: 101 % of control

CCCCCCCCCCCCSC1=C(Cl)C(=O)C(OC)=C(OC)C1=O
T/C (dose: 6.0 mg/kg/injection, schedule: Q01DX Z (ip), vehicle: saline): 103 % of control | T/C (dose: 6.25 mg/kg/injection, schedule: Q01DX009 (ip), vehicle: saline with Tween-80): 105 % of control | T/C (dose: 12.0 mg/kg/injection, schedule: Q01DX Z (ip), vehicle: saline): 100 % of control | T/C (dose: 12.5 mg/kg/injection, schedule: Q01DX009 (ip), vehicle: saline with Tween-80): 108 % of control | T/C (dose: 25.0 mg/kg/injection, schedule: Q01DX009 (ip), vehicle: saline with Tween-80): 121 % of control | T/C (dose: 25.0 mg/kg/injection, schedule: Q01DX Z (ip), vehicle: saline): 100 % of control | T/C [1]: 119 % of control | T/C (dose: 50.0 mg/kg/injection, schedule: Q01DX Z (ip), vehicle: saline): 92 % of control

CC1(C)CC(C)(OC(=O)c2ccc(F)cc2)[N+]([O-])=N1 (centres undefined)
T/C (dose: 4.7 mg/kg/injection, schedule: Q01DX009 (ip), vehicle: other): 115 % of control | T/C (dose: 9.4 mg/kg/injection, schedule: Q01DX009 (ip), vehicle: other): 112 % of control | T/C (dose: 18.8 mg/kg/injection, schedule: Q01DX009 (ip), vehicle: other): 106 % of control | T/C (dose: 37.5 mg/kg/injection, schedule: Q01DX009 (ip), vehicle: other): 120 % of control | T/C (dose: 75.0 mg/kg/injection, schedule: Q01DX009 (ip), vehicle: other): 106 % of control | T/C (dose: 150.0 mg/kg/injection, schedule: Q01DX009 (ip), vehicle: other): 101 % of control

COc1nc2[nH]ccc2c(=O)[nH]1
T/C [2]: 94 % of control | T/C [3]: 86 % of control | T/C [4]: 96 % of control

Nc1ncnc2c1c(-c1ccc(Cl)cc1)cn2-c1ccc(I)cc1
T/C [2]: 100 % of control | T/C [3]: 102 % of control | T/C [4]: 88 % of control

CCCSc1nc2ccc(NC(=O)/C=C/C(=O)O)cc2s1
T/C [8]: 107 % of control | T/C [9]: 96 % of control | T/C [10]: 103 % of control

Cc1cc(N/N=C/c2ccccn2)c2cc3c(cc2n1)OCO3
T/C (dose: 12.5 mg/kg/injection, schedule: Q01DX005 (ip), vehicle: Klucel (hydroxypropylcellulose) (HPC)): 103 % of control | T/C [11]: 104 % of control | T/C [12]: 101 % of control and 104 % of control

COC(=O)C1CCC(/C(C#N)=C2/CCC(C(=O)OC)[N-]2)=N1.COC(=O)C1CCC(/C(C#N)=C2/CCC(C(=O)OC)[N-]2)=N1.[Cu+2] (centres undefined)
T/C [2]: 103 % of control | T/C [3]: 94 % of control

CC1(C)OC1C1CC(C2CCC3(C)C4=CCC5C(C)(C)C(=O)CCC5(C)C4CCC23C)C(O)O1 (centres undefined)
T/C (dose: 1.5 mg/kg/injection, schedule: Q01DX009 (ip), vehicle: Klucel (hydroxypropylcellulose) (HPC)): 90 % of control | T/C (dose: 3.0 mg/kg/injection, schedule: Q01DX009 (ip), vehicle: Klucel (hydroxypropylcellulose) (HPC)): 94 % of control | T/C (dose: 6.0 mg/kg/injection, schedule: Q01DX009 (ip), vehicle: Klucel (hydroxypropylcellulose) (HPC)): 103 % of control | T/C (dose: 12.0 mg/kg/injection, schedule: Q01DX009 (ip), vehicle: Klucel (hydroxypropylcellulose) (HPC)): 100 % of control

Cc1nn(C(N)=S)c(C)c1N=Nc1ccc(F)cc1
T/C [11]: 96 % of control | T/C [12]: 102 % of control | T/C [13]: 90 % of control

COc1cc2c3cc1Oc1c(O)c(OC)cc4c1[C@H](Cc1ccc(O)c(c1)Oc1ccc(cc1)C[C@H]3N(C)CC2)N(C)CC4
T/C (dose: 37.5 mg/kg/injection, schedule: Q01DX009 (ip), vehicle: Klucel (hydroxypropylcellulose) (HPC)): 98 % of control

c1ccc(CCNC2CCc3ccccc3C2)cc1 (centres undefined)
T/C [5]: 93 % of control

CSC(C(O)C(O)C(O)C(O)CO)n1cnc2c(=S)nc[nH]c21 (centres undefined)
T/C [5]: 99 % of control | T/C [6]: 96 % of control | T/C [7]: 99 % of control

C=C1C(=O)O[C@@H]2C[C@@H](C)[C@@H]3CC[C@H](O)[C@@]3(COC(C)=O)C[C@@H]12
T/C (dose: 8.13 mg/kg/injection, schedule: Q01DX005 (ip), vehicle: Klucel (hydroxypropylcellulose) (HPC)): 97 % of control | T/C (dose: 16.25 mg/kg/injection, schedule: Q01DX005 (ip), vehicle: Klucel (hydroxypropylcellulose) (HPC)): 99 % of control | T/C (dose: 32.5 mg/kg/injection, schedule: Q01DX005 (ip), vehicle: Klucel (hydroxypropylcellulose) (HPC)): 100 % of control and 98 % of control | T/C (dose: 65.0 mg/kg/injection, schedule: Q01DX005 (ip), vehicle: Klucel (hydroxypropylcellulose) (HPC)): 104 % of control and 109 % of control | T/C (dose: 130.0 mg/kg/injection, schedule: Q01DX005 (ip), vehicle: Klucel (hydroxypropylcellulose) (HPC)): 113 % of control | T/C (dose: 260.0 mg/kg/injection, schedule: Q01DX005 (ip), vehicle: Klucel (hydroxypropylcellulose) (HPC)): 122 % of control

O=C(N/N=C/c1ccccc1[O-])c1ccccc1O.O=C(N/N=C/c1ccccc1[O-])c1ccccc1O.[Mn+2]
T/C [12]: 100 % of control | T/C [13]: 103 % of control | T/C (dose: 200.0 mg/kg/injection, schedule: Q01DX005 (ip), vehicle: Klucel (hydroxypropylcellulose) (HPC)): 103 % of control

CCC(C)(Oc1ccc(Cc2ccc(Cl)cc2)cc1)C(=O)OCc1cccnc1 (centres undefined)
T/C (dose: 50.0 mg/kg/injection, schedule: Q01DX009 (ip), vehicle: suspension in saline): 95 % of control | T/C (dose: 100.0 mg/kg/injection, schedule: Q01DX009 (ip), vehicle: suspension in saline): 95 % of control | T/C (dose: 200.0 mg/kg/injection, schedule: Q01DX009 (ip), vehicle: suspension in saline): 94 % of control

CCc1nc2c(Br)c3oc(CC)nc3c(Br)c2o1
T/C (dose: 60.0 mg/kg/injection, schedule: Q01DX005 (ip), vehicle: Klucel (hydroxypropylcellulose) (HPC)): 103 % of control | T/C (dose: 120.0 mg/kg/injection, schedule: Q01DX005 (ip), vehicle: Klucel (hydroxypropylcellulose) (HPC)): 100 % of control | T/C (dose: 240.0 mg/kg/injection, schedule: Q01DX005 (ip), vehicle: Klucel (hydroxypropylcellulose) (HPC)): 90 % of control

Nc1nncs1
T/C (dose: 6.25 mg/kg/injection, schedule: Q01DX009 (ip), vehicle: water): 107 % of control and 108 % of control and 94 % of control | T/C (dose: 7.5 mg/kg/injection, schedule: Q01DX009 (ip), vehicle: water): 112 % of control | T/C (dose: 15.0 mg/kg/injection, schedule: Q01DX009 (ip), vehicle: water): 101 % of control | T/C (dose: 20.0 mg/kg/injection, schedule: Q01DX005 (ip), vehicle: saline): 103 % of control and 109 % of control | T/C (dose: 30.0 mg/kg/injection, schedule: Q01DX009 (ip), vehicle: water): 117 % of control | T/C (dose: 40.0 mg/kg/injection, schedule: Q01DX005 (ip), vehicle: saline): 122 % of control | T/C (dose: 80.0 mg/kg/injection, schedule: Q01DX005 (ip), vehicle: saline): 172 % of control and 188 % of control | T/C (dose: 120.0 mg/kg/injection, schedule: Q01DX009 (ip), vehicle: water): 104 % of control | T/C (dose: 160.0 mg/kg/injection, schedule: Q01DX005 (ip), vehicle: saline): 69 % of control

C1CCC2OCCOCCOCCOCCOC2C1 (centres undefined)
T/C (dose: 50.0 mg/kg/injection, schedule: Q01DX005 (ip), vehicle: saline): 95 % of control | T/C (dose: 100.0 mg/kg/injection, schedule: Q01DX005 (ip), vehicle: saline): 95 % of control
